Source: patent US12365643B2, “Phenoxy carboxylic acid compounds and medical uses thereof” (QINGDAO RISING BIOTECHNOLOGY CO., LTD, priority 2018, dated 2025)

Legend:
ACOX1 = ACOX1 mRNA expression by real-time quantitative PCR in HepG2; assay type: cell-based, human; conditions: 1 μM, 6 hours, HepG2 (FIG. 5D)
Excerpt: (§1) Peroxisome proliferation factor activated receptor (PPAR) is an important nuclear receptor that regulates glycolipid metabolism, including three subtypes: α, β/δ and γ. Peroxisome proliferator-activated receptor γ coactivator 1α (PGC-1α) is its auxiliary transcriptional activator. Acyl-CoA oxidase 1 (ACOX1) is the first rate-limiting enzyme for fatty acid β oxidation. Fatty acid binding protein 1 (FABP1) is highly expressed in liver, and can bind fatty acid, heme and other molecules to reduce their toxicity and damage. Up-regulating the expression level of these genes helps to improve the body's metabolism, and their agonists are an important class of anti-metabolic drugs. After the compound of the present application (1 μM) and the control drug gemfibrozil (1 μM) were incubated with human liver cancer cells HepG2 for 6 hours, real-time fluorescent quantitative PCR method was used to determine the relative expression of mRNA of related genes in the cells.
(§2) The company which synthesized the primers was Suzhou Hongxun Biotechnology Co., Ltd. Tranzol reagent (Tranzol total RNA extraction reagent, TransGen Biotech) was used to extract total RNA from tissues. 5× All-In-One RT MasterMix reverse transcription kit (Abcam, USA) and real-time quantitative PCR Master Mix (Aidlab Biotechnologies Co., Ltd) were used. Bio-Rad CFX Connect™ Real-Time PCR Detection System for qPCR was used, and 2^−ΔΔCT method was used for data analysis. The expression level of mRNA in the normal control group was set to 1, and the relative expression level of mRNA in the administration group was calculated, so as to confirm whether the active compound affected the PPAR pathway, thereby further regulating lipid metabolism.

phosphorylated GSK3β = test: Phosphorylated GSK3β level by Western blotting in HepG2; assay type: cell-based, human; conditions: 1 μM, 24 hours, HepG2, Western blotting (FIG. 6B)
Excerpt: (§3) Carnitine palmitoyltransferase (CPT1α) is a rate-limiting enzyme of fatty acid oxidation. When the body or tissues are lacking in energy, CPT1α catalyzes the entry of fatty acids into mitochondria for […], and at the same time, CPT1α is also involved in the regulation of fatty acid-induced insulin resistance and inflammation. Protein kinase B/glycogen synthase kinase 3β (AKT/GSK3β) signaling pathway and insulin receptor substrate 1 (IRS-1) are key signaling pathways that regulate glucose metabolism in response to insulin signal. Therefore, by determining the effects of compounds on the CPT1α protein level and the AKT, GSK3β and IRS-1 protein phosphorylation levels, it is possible to evaluate the regulatory effects of the compounds on glycolipid metabolism.
(§4) After human liver cancer cells HepG2 were incubated with the compound of the present application or the control drug at 1 μM for 24 hours, the CPT1α protein level and the AKT, GSK3β and IRS-1 phosphorylated protein levels in the cells were determined by Western blotting; after gray-scale scanning by using Image J15.0.1, normalization was performed by using β-tubulin protein level as internal control, and the quantitative analysis results were shown in FIG. 6.

[1] = tested on: RAW264.7 mouse macrophages; test: Determination of NO generation induced by LPS; assay type: cell-based; conditions: 10 μM, 1 μg/mL LPS, 24 hours, RAW264.7 (FIG. 2)
Experimental: The results are expressed as the multiple of the NO content in the cell culture supernatant of the administration group (10 μM) as compared with that in the cell culture supernatant of the control group (DMSO group), in which compared with the control group, *P<0.05, **P<0.01, ***P<0.001.
NO is a reactive nitrogen species (RNS) and an important gas signal molecule. Macrophages could convert arginine into NO which participated in the body's inflammatory response. Therefore, determination of inhibitory activity of a drug on NO generation was one of the classic methods to evaluate drug's anti-inflammatory ability. RAW264.7 cells at exponential growth phase were inoculated into a 96-well plate at 1×10^4 cells/200 μL. well of medium. After adherence, the medium was discarded, and the cells were subjected to drug treatments. Normal group (serum-free medium), LPS model group (serum-free medium containing 1 μg/mL LPS), LPS+drug group (serum-free medium containing 1 μg/mL LPS, 10 μM gemfibrozil or the compound of the present application) were established, and 3 repeated wells were set for each group. After 24 hours incubation in incubator, cell supernatant of each well was collected and assay was performed according to the instructions of NO determination kit (Nanjing Jiancheng). The absorbance value of each well at wavelength of 540 nm was read and NO content was calculated.

phosphorylated IRS-1 = test: Phosphorylated IRS-1 level by Western blotting in HepG2; assay type: cell-based, human; conditions: 1 μM, 24 hours, HepG2, Western blotting (FIG. 6C)
Excerpt: as §3, §4

CPT1α = CPT1α protein level by Western blotting in HepG2; assay type: cell-based, human; conditions: 1 μM, 24 hours, HepG2, Western blotting (FIG. 6A)
Excerpt: as §3, §4

[2] = tested on: antioxidant response element (ARE); test: ARE luciferase reporter gene activity in HepG2 cells; assay type: cell-based, human; conditions: 50 μM, HepG2 stably transfected (FIG. 4)
Experimental: (§5) NF-κB was the most important inflammatory signal pathway. SW480 human colon cancer cells stably transfected with a luciferase reporter gene driven by NF-κB were used to determine the effects of the compound of the present application and the control drug gemfibrozil on NF-κB transcriptional activity, which comprised the following steps. • (1) Cells stably transfected with NF-κB Luc were cultivated to exponential growth, inoculated at a culture medium concentration of 1×10^5/[…] in a 24-well plate, and cultured for 24 hours, the medium was discarded, and the test compound or gemfibrozil formulated with serum-free medium at 50 μM were added to the 24-well plate and incubation was continued for 6 hours. After washing once with 200 μL of PBS, 100 μL of reporter gene cell lysis buffer was added, the cells were lysed on ice for 10 minutes, and the cell lysate was collected by pipetting. • (2) After centrifugation was performed at 8000 rpm and 4° C. for 10 min, the supernatant was pipetted for fluorescence assay. • (3) The measurement gap time of chemiluminescence analyzer was set to 2 s and the measurement time was set to 10 s. Automatic sample injection was adopted, 50 μL of luciferase assay reagent was added to each well. The reporter gene cell lysis buffer was used as a blank control. • (4) After centrifugation, the supernatant was taken, and the BCA method was used to determine the protein concentration so as to normalize the reporter gene results.
In this experimental example, the luciferase activity in HepG2 human liver cancer cells stably transfected with a luciferase reporter gene driven by antioxidant response element (ARE) was determined to evaluate the regulatory effects of the compound of the present application and gemfibrozil on the transcriptional activity of transcription factor Nrf2 and the cellular oxidative stress response signals, in which the operation process of the reporter gene assay was the same as that of Experimental Example 2.2.

NF-κB = NF-κB luciferase reporter gene transcriptional activity in SW480 cells; assay type: cell-based, human; conditions: 50 μM, 6 hours, SW480 stably transfected (FIG. 3)
Experimental: as §5

PGC1α = PGC1α mRNA expression by real-time quantitative PCR in HepG2; assay type: cell-based, human; conditions: 1 μM, 6 hours, HepG2 (FIG. 5C)
Excerpt: as §1, §2

PPARγ = PPARγ mRNA expression by real-time quantitative PCR in HepG2; assay type: cell-based, human; conditions: 1 μM, 6 hours, HepG2 (FIG. 5B)
Excerpt: as §1, §2

Structure (SMILES) | ACOX1 mRNA expression (ACOX1) | phosphorylation level of GSK3β (phosphorylated GSK3β) | NO generation induced by LPS [1] | phosphorylation level of IRS-1 (phosphorylated IRS-1) | CPT1α protein level (CPT1α) | ARE reporter gene activity [2] | activity of NF-κB reporter gene (NF-κB) | PGC1α mRNA expression (PGC1α) | PPARγ mRNA expression (PPARγ)
Cc1cc(Br)c(C)c(Br)c1OCCCC(C)(C)C(=O)O [BJMU-109, 5-(2,4-dibromo-3,6-dimethylphenoxy)-2,2-dimethylpentanoic acid] | significantly induced ACOX1 mRNA expression | significantly increased the phosphorylation level of GSK3β | could inhibit NO generation | significantly increased the phosphorylation level of IRS-1 |  |  |  |  | 
Cc1cc(F)c(C)c(OCCCC(C)(C)C(=O)O)c1 [BJMU-213, 5-(3-fluoro-2,5-dimethylphenoxy)-2,2-dimethylpentanoic acid] |  | significantly increased the phosphorylation level of GSK3β |  | significantly increased the phosphorylation level of IRS-1 | significantly increased CPT1α protein level |  |  |  | 
Cc1ccc(C)c(OCCCC(C)(C)C(=O)O)c1Br [BJMU-404, 5-(2-bromo-3,6-dimethylphenoxy)-2,2-dimethylpentanoic acid] | significantly induced ACOX1 mRNA expression | significantly increased the phosphorylation level of GSK3β |  | significantly increased the phosphorylation level of IRS-1 | significantly increased CPT1α protein level | could significantly activate the ARE reporter gene activity | could significantly inhibit the activity of NF-κB reporter gene |  | 
Cc1cc(Br)c(C)c(C)c1OCCCC(C)(C)C(=O)O [BJMU-409, 5-(4-bromo-2,3,6-trimethylphenoxy)-2,2-dimethylpentanoic acid] | significantly induced ACOX1 mRNA expression | significantly increased the phosphorylation level of GSK3β |  | significantly increased the phosphorylation level of IRS-1 | significantly increased CPT1α protein level | could significantly activate the ARE reporter gene activity |  | significantly induced PGC1α mRNA expression | 
Cc1cc(OCCCC(C)(C)C(=O)O)c(CO)cc1Br [BJMU-502, 5-(4-bromo-2-(hydroxymethyl)-5-methylphenoxy)-2,2-dimethylpentanoic acid] | significantly induced ACOX1 mRNA expression |  | could inhibit NO generation | significantly increased the phosphorylation level of IRS-1 | significantly increased CPT1α protein level | could significantly activate the ARE reporter gene activity |  | significantly induced PGC1α mRNA expression | significantly induced PPARγ mRNA expression
